Data set [1] addresses Voltage-gated inwardly rectifying potassium channel KCNH2 (Homo sapiens, UniProt Q12809).
Another data set in a line: cells. To be noted: Homo sapiens, Th17, 96 h.
A short description of a further data set: physchem. The following applies: 1-octanol/phosphate buffered saline, pH 7.4.
Data set [2] in a line: in vitro. The following applies: human, liver microsomes. (In general: Liver microsomes are a subcellular fraction often used to study metabolism.)
Data set [3] can be described thus: Apparent permeability across apical to basolateral side in human Caco-2 cells. In kind it is ADME, cell-based.
Data set [4] is described as follows: Intrinsic permeability of compound from apical to basolateral side in human Caco2 cells. In kind it is ADME, cell-based. To be noted: Caco-2.
The subject of data set [5] is MDR1. Put plainly: Apparent permeability across basolateral to apical side in dog MDCK-MDR1 cells. In kind it is ADME, cell-based, Canis lupus familiaris.
Data set [6] in a line: Volume of distribution at steady state in C57BL/6 mouse at 1 mg/kg, iv. The format is ADME, organism-based. The following applies: in vivo, read-out: Vdss.
A short description of data set [7]: Half life in C57BL/6 mouse at 1 mg/kg, iv. The following applies: in vivo. The format is ADME, organism-based.
The nature of data set [8]: Oral bioavailability in C57BL/6 mouse at 2 mg/kg using amorphous form of sample. To be noted: in vivo. In kind it is ADME, organism-based.
Data set [9] in a line: Apparent permeability across basolateral to apical side in human Caco-2 cells. The format is ADME, cell-based.
Data set [10] can be described thus: Fraction absorbed in C57BL/6 mouse at 2 mg/kg, po using amorphous form of sample. In kind it is ADME, organism-based. The following applies: in vivo, read-out: Fabs.
A short description of data set [11]: Oral bioavailability in Han Wistar rat at 50 mg/kg using crystaline form of sample. The following applies: in vivo. In kind it is ADME, organism-based.
The subject of data set [12] is MDR1. Put plainly: Apparent permeability across apical to basolateral side in dog MDCK-MDR1 cells. The format is ADME, cell-based, Canis lupus familiaris.
A short description of data set [13]: Renal clearance in Han Wistar rat at 0.5 mg/kg, iv. The format is ADME, organism-based, Kidney. To be noted: in vivo.
Data set [14] in a line: Total plasma clearance in Beagle dog at 1 mg/kg, iv. In kind it is ADME, organism-based, Canis lupus familiaris.
Data set [15] can be described thus: Fraction absorbed in Beagle dog at 10 mg/kg, po using crystaline form of sample. The following applies: in vivo, read-out: Fabs. The format is ADME, organism-based, Canis lupus familiaris.
Data set [16] in a line: Plasma protein binding in dog assessed as unbound fraction by equilibrium dialysis. In kind it is ADME, cell-free, Canis lupus familiaris.
The nature of data set [17]: Metabolic stability in dog hepatocytes assessed as intrinsic clearance measured per 10^6 cells. The format is ADME, cell-based, Canis lupus familiaris, Hepatocyte. The following applies: read-out: CLH.
A short description of data set [18]: Fraction absorbed in Beagle dog at 3 mg/kg, po using amorphous form of sample. In kind it is ADME, organism-based, Canis lupus familiaris. To be noted: in vivo, read-out: Fabs.
Data set [19] can be described thus: Oral bioavailability in Beagle dog at 10 mg/kg using crystaline form of sample. The format is ADME, organism-based, Canis lupus familiaris. The following applies: in vivo.
Data set [20] can be described thus: Metabolic stability in mouse hepatocytes assessed as intrinsic clearance measured per 10^6 cells. In kind it is ADME, cell-based, Hepatocyte. To be noted: read-out: CLH.
Data set [21] is described as follows: Half life in Beagle dog at 1 mg/kg, iv. The format is ADME, organism-based, Canis lupus familiaris. The following applies: in vivo.
Data set [22] can be described thus: Fraction absorbed in Han Wistar rat at 50 mg/kg, po using EtOH form of sample. In kind it is ADME, organism-based. The following applies: in vivo, read-out: Fabs.
Data set [23] is filed under the species Mus musculus. Put plainly: animal or person. The following applies: C57BL/6NCrl, sc, 168 h, read-out: INH.
Data set [24] in a line: Biliary clearance in Han Wistar rat at 1 mg/kg, iv. To be noted: in vivo. In kind it is ADME, organism-based, Bile.
Data set [25] is described as follows: Volume of distribution at steady state in Beagle dog at 1 mg/kg, iv. In kind it is ADME, organism-based, Canis lupus familiaris. To be noted: in vivo, read-out: Vdss.
A short description of data set [26]: Fraction absorbed in Han Wistar rat at 1 mg/kg, po using amorphous form of sample. In kind it is ADME, organism-based. To be noted: in vivo, read-out: Fabs.
A short description of data set [27]: Plasma protein binding in rat assessed as unbound fraction by equilibrium dialysis. In kind it is ADME, cell-free.
Data set [28] is filed under the species Mus musculus. Put plainly: animal or person. The following applies: C57BL/6NCrl, sc, 168 h, read-out: INH. This is another data set of the same source.
A short description of data set [29]: Oral bioavailability in Han Wistar rat at 1 mg/kg using amorphous form of sample. The format is ADME, organism-based. To be noted: in vivo.
A short description of data set [30]: Oral bioavailability in Beagle dog at 3 mg/kg using amorphous form of sample. The format is ADME, organism-based, Canis lupus familiaris. To be noted: in vivo.
The nature of data set [31]: Fraction absorbed in Han Wistar rat at 50 mg/kg, po using crystaline form of sample. In kind it is ADME, organism-based. The following applies: in vivo, read-out: Fabs.
Data set [32] is described as follows: Half life in Han Wistar rat at 0.5 mg/kg, iv. The format is ADME, organism-based. To be noted: in vivo.
Data set [33] can be described thus: Total plasma clearance in C57BL/6 mouse at 1 mg/kg, iv. In kind it is ADME, organism-based.
A short description of data set [34]: Oral bioavailability in Han Wistar rat at 50 mg/kg using EtOH form of sample. The format is ADME, organism-based. The following applies: in vivo.
The nature of data set [35]: Plasma protein binding in mouse assessed as unbound fraction by equilibrium dialysis. The format is ADME, cell-free. A general note: Equilibrium dialysis compares concentrations on both sides of a semipermeable membrane.
Data set [36] in a line: Volume of distribution at steady state in Han Wistar rat at 0.5 mg/kg, iv. The format is ADME, organism-based. To be noted: in vivo, read-out: Vdss.
A short description of data set [37]: Total plasma clearance in Han Wistar rat at 1 mg/kg, iv. The format is ADME, organism-based.
The conditions of data set [38]: rat, in vivo, po, 1 mg/kg.
Data set [39] is described as follows: in vitro. The following applies: human, hepatocytes.
Data set [40] is described as follows: in vivo. The following applies: Han Wistar, rat, po, 1 mg/kg.
Data set [41] can be described thus: in vivo. To be noted: Han Wistar, rat, po, 1 mg/kg. This is another data set of the same source.
The nature of data set [42]: in vitro. To be noted: rat, hepatocytes.
A short description of data set [43]: in vivo. The following applies: Han Wistar, rat, po, 1 mg/kg. The source holds these as a separate data set.

Chain of Voltage-gated inwardly rectifying potassium channel KCNH2 (Q12809 whole entry): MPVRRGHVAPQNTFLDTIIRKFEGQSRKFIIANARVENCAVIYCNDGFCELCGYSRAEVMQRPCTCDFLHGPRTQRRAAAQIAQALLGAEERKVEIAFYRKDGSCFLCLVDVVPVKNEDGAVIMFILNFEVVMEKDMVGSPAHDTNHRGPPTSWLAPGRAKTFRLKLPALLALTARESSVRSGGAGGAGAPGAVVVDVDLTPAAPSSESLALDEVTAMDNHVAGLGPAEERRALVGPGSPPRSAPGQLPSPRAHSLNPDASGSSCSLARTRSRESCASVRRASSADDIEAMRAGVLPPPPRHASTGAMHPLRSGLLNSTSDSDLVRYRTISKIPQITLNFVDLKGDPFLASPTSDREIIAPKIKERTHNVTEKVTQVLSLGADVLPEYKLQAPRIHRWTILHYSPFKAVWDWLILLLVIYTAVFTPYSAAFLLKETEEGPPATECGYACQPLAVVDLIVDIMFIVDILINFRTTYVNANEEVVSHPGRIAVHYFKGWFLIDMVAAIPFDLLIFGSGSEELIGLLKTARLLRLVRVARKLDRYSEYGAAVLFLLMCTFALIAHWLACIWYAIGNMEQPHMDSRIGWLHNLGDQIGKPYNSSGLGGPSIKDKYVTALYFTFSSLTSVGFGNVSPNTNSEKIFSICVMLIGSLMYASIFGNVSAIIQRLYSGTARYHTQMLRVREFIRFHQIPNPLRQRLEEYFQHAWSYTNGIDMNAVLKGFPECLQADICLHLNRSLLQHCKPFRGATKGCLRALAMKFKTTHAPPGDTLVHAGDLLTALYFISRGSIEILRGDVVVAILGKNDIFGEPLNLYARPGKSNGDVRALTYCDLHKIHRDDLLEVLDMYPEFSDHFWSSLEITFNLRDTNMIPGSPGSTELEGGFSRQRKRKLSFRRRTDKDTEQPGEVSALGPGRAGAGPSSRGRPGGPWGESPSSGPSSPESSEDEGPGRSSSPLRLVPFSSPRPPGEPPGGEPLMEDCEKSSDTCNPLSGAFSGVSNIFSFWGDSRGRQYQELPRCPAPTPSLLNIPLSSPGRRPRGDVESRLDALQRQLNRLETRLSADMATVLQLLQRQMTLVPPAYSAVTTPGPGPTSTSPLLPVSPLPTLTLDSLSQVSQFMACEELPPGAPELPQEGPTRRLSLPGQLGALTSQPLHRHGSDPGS

For the compound `CCS(=O)(=O)c1ccc(C(Cn2cccn2)C(=O)Nc2ccc(C(O)(C(F)(F)F)C(F)(F)F)cc2)cc1` (centres undefined), the IC50 in [1] is 2400 nM; in the data set “cells” it was 360 nM. The logD in the data set “physchem” was greater than 4. The same compound yielded a microsomal CLint in the data set “in vitro [2]” of 16 µL/min/mg. The Papp A→B in data set [3] worked out at 2.6 ×10⁻⁶ cm/s. The compound also had a Pm in [4] of 44.
For the compound `CC(=O)N1Cc2cc(S(C)(=O)=O)ccc2[C@@H]1C(=O)Nc1ccc(C(O)(C(F)(F)F)C(F)(F)F)cc1`, the Papp B→A (in the data set on MDR1 [5]; in data set [9]) was 16 ×10⁻⁶ cm/s each time. The results for the Vd in data set [6], in [25] and in data set [36] were 1.3 L/kg, 1.9 L/kg and 2.5 L/kg, respectively. The results for the half-life in data set [7], in [21] and in [32] were 2.7 h, 16.6 h and 3.3 h, respectively. Besides, the bioavailability in data set [8] is 67%; in [11], 5%; in data set [19] it was 50%; in data set [29], 34%; in [30] it was 97%; in data set [34], 35%. The Fa was 71% in [10]; 52% in data set [15]; 99% in [18]; 42% in [22]; 41% in [26]; 6% in data set [31]. Further, in the data set with MDR1 [12], the Papp A→B was 0.9 ×10⁻⁶ cm/s. Further, in data set [13], the CL renal turned out to be 2.9 mL/min/kg. In the data set “physchem”, this compound yielded a logD of 2.4. The clearance in data set [14] came to 1.9 mL/min/kg; in [33], 10.5 mL/min/kg; in data set [37], 12.4 mL/min/kg. Further, the results for the fraction unbound in data set [16], in data set [27] and in data set [35] were 0.12, 0.23 and 0.21, respectively. The hepatocyte CLint is less than 1 µL/min/1e6 cells in data set [17] and 2.3 µL/min/1e6 cells in data set [20]. In “in vitro [2]”, the microsomal CLint was less than 3 µL/min/mg. Also, the inhibition in vivo at 50 mg/kg in the data set listed under Mus musculus [23] came to 65%. Moreover, the CL in [24] was determined as 0.4 mL/min/kg. Further, in the data set listed under Mus musculus [28], the inhibition in vivo at 15 mg/kg is 67%.
In turn, `CC(=O)N1Cc2cc(S(C)(=O)=O)ccc2C1C(=O)Nc1ccc(C(O)(C(F)(F)F)C(F)(F)F)cc1` (racemic) registered a Vdss in data set [38] of 2 L/kg. In addition, the hepatocyte CLint in “in vitro [39]” and in “in vitro [42]” was less than 1 µL/min/1e6 cells throughout. In “physchem”, this compound gave a logD of 2.4. The compound further yielded a CL/F in the data set “in vivo [40]” of 6.3 mL/min/kg. In the data set “in vitro [2]”, this compound showed a microsomal CLint of less than 3 µL/min/mg. This compound also came in with a bioavailability in “in vivo [41]” of 40%. The half-life in “in vivo [43]” was 4.9 h.

One may read the IC50 as the concentration that inhibits the measured activity by half. Lower therefore signals greater potency in that assay. The logD is the decadic logarithm of the distribution of all forms, ionised or not, between an organic phase and buffer at a given pH. The low end stands for lower lipophilicity, the high end for higher lipophilicity. In general, microsomal CLint refers to a measure of how fast metabolising enzymes remove a compound, apart from limits set by blood flow. Low values mean slow turnover, high ones rapid turnover. What is called Papp A→B is how fast a substance crosses the layer from the apical side. As usually defined, the Papp B→A is the apparent permeability from the basolateral to the apical side of a cell layer. A word on the half-life: it is the time in which the quantity being followed falls by half. Higher therefore signals slow decline. As a reminder, the bioavailability is dose-corrected exposure relative to a reference, in per cent. Read a low bioavailability as poor availability. The clearance is the volume of plasma or blood freed of the substance per unit of time. Read a low clearance as inefficient removal. What is called fraction unbound is the share of the substance not bound to proteins or other matrix. The CL/F is clearance divided by bioavailability, as obtained after extravascular dosing.

Source of the values: ChEMBL document CHEMBL4831524, “AZD0284, a Potent, Selective, and Orally Bioavailable Inverse Agonist of Retinoic Acid Receptor-Related Orphan Receptor C2” (J Med Chem, 2021).
